Test results as given in patent publication US11033537B2, “LPT-723 and immune checkpoint inhibitor combinations and methods of treatment” (BIOMED VALLEY DISCOVERIES, INC., priority 2015, dated 2021).

How the values were obtained:
[1] = Monkey 7-day dose range finding study; assay type: in vivo
Description: Preparation of the Control/Vehicle Item: The control/vehicle item (2% TPGS/1.5% HPMCAS-HF/1.5% PVP-VA with 50 mM sodium citrate buffer pH 5.0) was prepared 3 days prior to the start of dosing and was stored at room temperature, away from direct light for the duration of the study. The instructions below were for the preparation of a final volume of 2.5 L. These instructions were scaled as needed.
500 mL of 10% Vitamin E-TPGS were added to an appropriate sized container and stirring was initiated. 750 mL of 5% HPMCAS-HF/5% PVP-VA were added to the same container and stirred at medium speed for 30 minutes to ensure proper mixing. 1 L of deionized water was added and stirring was continued for 30 minutes. 125 mL of 1M sodium citrate buffer and 125 mL of deionized water were added with stirring. The final vehicle was stirred at medium speed for 1 hour. The vehicle was a hazy solution and was stored at room temperature, away from direct light for the duration of the study.
Experimental Design: The test and control/vehicle items were administered once daily for 7 consecutive days by oral gavage as described in Table 6 below. The dose volume administered to each animal was 5 mL/kg. One day after the end of dosing, the Main animals were euthanized and subjected to a necropsy examination on Day 8.

[2] = test system: A20 murine syngeneic B cell lymphoma; test: A20 lymphoma syngeneic model; assay type: in vivo, BALB/c mice; conditions: Day 15; LPT-723 30 mpk p.o. bid; anti-PD-1 10 mpk i.p. twice a week
Description: BALB/c mice bearing A20 murine syngeneic B cell lymphoma were treated with control (vehicle), anti-PD-1 (clone RMP1-14), LPT-723 and anti-PD-1/LPT-723 combination. Treatment was initiated when tumor volume reached approximately 80-120 mm^3. Anti-PD-1 was dosed i.p. twice a week for three weeks at 10 mpk. LPT-723 was dosed p.o. twice a day at 30 mpk. […] No significant changes in body weights were noted.

[3] = test system: Salmonella typhimurium TA98 and TA100; test: 2-Strain Ames test; conditions: 1.5 to 5000 μg per plate, with and without rat liver S9
From the text: Test System: The two tester strains used were the Salmonella typhimurium histidine auxotrophs TA98 and TA100 as described by Ames et al. (1975). Tester strain TA98 is reverted from auxotrophy to prototrophy by frameshift mutagens while tester strain TA100 is reverted by mutagens that cause both frameshift and base pair substitution mutations.
Experimental Design: The test system was exposed to LPT-723 via the plate incorporation methodology originally described by McCann et al. (1975) and updated by Maron and Ames (1983). Briefly, LPT-723 was tested at eight dose levels along with appropriate vehicle control and positive controls. Overnight cultures of tester strains TA98 and TA100 were plated on selective minimal agar in the presence and absence of Aroclor-induced rat liver S9. […]
Plating and Scoring Procedures: LPT-723 dilutions were prepared immediately before use and delivered to the test system at room temperature under yellow light. […] Plates were counted immediately following the incubation period or were stored at 2-8° C. until colony counting could be conducted.
The condition of the bacterial background lawn was evaluated for evidence of LPT-723 toxicity using a dissecting microscope. Precipitate was evaluated by visual examination without magnification. […] Plates with sufficient LPT-723 precipitate to interfere with automated colony counting were counted manually. […]

[4] = Mouse 7-day dose range finding study; assay type: in vivo; conditions: 7 days
Description: Preparation of Test and Control/Vehicle Items: Vehicle is 2% TPGS/1.5% HPMCAS-HF/1.5% PVP-VA with 50 mM sodium citrate (pH 5.0) in deionized water. LPT-723 is a spray dried dispersion (SDD) containing 25% active and 75% HPMCAS-HF polymer. Test and vehicle items were stored at room temperature, protected from light, and desiccated. Dose formulation was prepared daily. Unless indicated otherwise, LPT-723 was mixed with vehicle to achieve the desired concentrations, using appropriate mixing equipment to achieve homogenous formulations.
The LPT-723 and vehicle were administered once per day for 7 consecutive days. Doses were administered at approximately the same time (±2 hours) throughout the duration of the study. All main study animals were submitted for necropsy on Day 8 (the day following the final dose).

MBT-2 cells = test: In vitro cell viability assay, MBT-2; assay type: cell-based, murine; conditions: Mus musculus
A20 cells = test: In vitro cell viability assay, A20; assay type: cell-based, murine; conditions: Mus musculus

## Cc1cc(-c2cncc(C(O)C(F)(F)F)c2)nc2c1C(=O)N(c1cnn(CC(F)F)c1)C2(C)C (stereo not shown) [LPT-723]
[1]; monkey, 40 mg/kg/day oral, 7 days
  highest dose versus maximum tolerated dose: exceeded the maximum tolerated dose (MTD)
[1]; monkey, 15, 25, 40 mg/kg/day, 7 days
  lymphocyte counts: dose-related decrease in lymphocyte counts
[1]; monkey, with lower doses
  expected therapeutic index: approximately 5
[2]
  decrease in median tumor volume: 43%
[3]
  toxicity (Ames plate incorporation): No toxicity was observed
[4]; mouse, 15, 35, 70 mg/kg/day
  tolerability: well tolerated
[4]; mouse
  clinical signs and histopathology: no clinical signs or histopatholoy findings
  lymphocyte and monocyte counts: decrease in lymphocyte and monocyte counts
MBT-2 cells
  IC50: 45.5 µM
A20 cells
  IC50: 84.1 µM
